This assay addresses T1, FAK enzyme (6 His tagged kinase domain, GenBank NP—722560) (Homo sapiens, UniProt Q05397).
T1 construct: 6 His; made in house; host or cells: insect cell culture infected with baculovirus
Nature of the assay: In vitro enzyme assay (a): sandwich ELISA of FAK tyrosine kinase activity on polyGAT peptide, TMB colorimetric endpoint. The settings on record: in vitro Enzyme Assay test (a); ATP at Km; geometric mean of n > 1 measurements, values marked * tested once. The class given is biochemical. How it is done: (a) In Vitro Enzyme Assay
A sandwich ELISA assay with a 3,3′,5,5′-tetramethyl benzidine (TMB) colorimetric endpoint was used in order to determine the level of effect of selected compounds on inhibition of FAK protein tyrosine kinase enzyme activity. A synthetic tyrosine containing peptide is coated onto a plastic surface, the level of phosphorylation of these tyrosine residues by the kinase enzyme in the presence of inhibitors is measured using an antibody that binds specifically to phosphorylated tyrosine residues. The amount of antibody bound to substrate is proportional to the level of enzyme catalysis.
Assay Protocol to Identify Inhibitors of Focal Adhesion Kinase (FAK).
A PlateMate Plus™ 384 automated liquid handling unit with a 100 μl disposable tip head was used to make all the non compound reagent additions and a Tecan 384PW plate washer with 384 head was used for all wash steps. Initially Matrix 384 well polystyrene plates (Cat #:4311) were coated with 40 μl/well of a 0.0375 mg/ml solution of synthetic poly peptide (polyGAT, Sigma Cat #:P3899) dissolved in phosphate buffered saline (PBS). Plates were stored overnight at 4° C. Immediately before use the coating solution was aspirated out and each well washed with 2×100 μl of PBS+0.05% Tween 20. To remove surplus phosphate, the wells were then washed with 2×100 μl 50 mM HEPES buffer pH 7.4. Plates were blotted dry before the addition of compounds. Compounds were tested over a 12 point dose range, a Labcyte Echo 550 was used to dispense compounds in nl volumes and back fill with DMSO. The final concentration of compound in the assay was dependent on the starting concentration of compound. For a 10 mM stock compound the final assay dose ranged from 100 μM down to […]. Control wells containing 120 nl DMSO (Max) or 120 nl of 10 mM staurosporine (LC Laboratories, Boston, USA Cat #: S-9300) (Min) were included in each plate. 10 ul of 5% dimethyl sulfoxide v/v (DMSO, Fisher Scientific) was added to each well immediately prior to addition of 10 μl of a co-factor solution containing 80 mM MgCl2 (Sigma Cat #: M1028); 80 mM MnCl2 (Sigma Cat #: M1787); ATP at a concentration calculated to enable the initial reaction velocity to progress at half the maximum velocity (Km for ATP) (Sigma Cat #:A7699). A final addition of 20 μl of enzyme solution containing 100 mM HEPES pH7.4; 0.2 mM sodium vanadate (Sigma Cat #:S6508); 0.2 g/l bovine serum albumin (BSA, Sigma Cat #: A7888); 0.2 mM dithioreitol (Sigma Cat #: 5545); 0.1% Triton X100 (Sigma Cat #:X100); FAK enzyme (20 μl/ml) was made to each well to start the assay running FAK enzyme was generated from an insect culture infected with baculo virus containing the DNA sequence encoding the 6 His tagged kinase domain (GenBank NP_722560).
Plates were left at room temperature for 25 minutes before 10 μl of 500 mM ethylenediaminetetraacetic acid (EDTA) was added to stop the assay and the wells were immediately washed 3×100 μl with PBS+0.05% Tween 20. A 4G10 antibody (Millipore Cat #: 16-105; 16-184) with a directly conjugated horse radish peroxidase (HRP) was used to detect the phosphorylation of the substrate by the FAK. 40 μl of PBS+0.05% Tween 20 containing 0.5% BSA and 0.1 μl/ml antibody was added to each well and left for 1 hour at room temperature to allow the antibody to bind. After this period the wells were again washed with 3×100 μl of PBS+0.05% Tween 20. TMB (Sigma Cat #: T2885) was used as a substrate for the HRP. Phosphate-citrate buffer was made up using capsules provided by Sigma (Cat #: P4922) following the manufacturers guidelines. TMB was dissolved at a concentration of 1 mg/ml in DMSO and let down to a final concentration of 0.05 mg/ml with the phosphor-citrate buffer. 40 μl of the TMB solution was added to each assay well and left for 30 minutes for the blue colour to develop. […]

The structures appear in SMILES notation.

T1 sequence (Q05397 422-680 limits assumed): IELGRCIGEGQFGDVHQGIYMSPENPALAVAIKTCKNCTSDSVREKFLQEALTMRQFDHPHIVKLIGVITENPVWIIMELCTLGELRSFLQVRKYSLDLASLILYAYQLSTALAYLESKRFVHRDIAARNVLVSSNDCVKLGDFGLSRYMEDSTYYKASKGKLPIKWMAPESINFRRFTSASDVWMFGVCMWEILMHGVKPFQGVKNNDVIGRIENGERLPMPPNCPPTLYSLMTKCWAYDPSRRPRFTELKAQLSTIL

A word on the IC50: it is the concentration that gives 50% inhibition. Low values mean greater potency, high ones weaker potency. Compound `CNC(=O)c1ccccc1Nc1cc(Nc2cn(C)nc2C)ncc1C#N` [Example 1.01, 2-[[5-Cyano-2-[(1,3-dimethylpyrazol-4-yl)amino]-4-pyridyl]amino]-N-methyl-benzamide] came in with an IC50 of 65 nM.

Compound `CNC(=O)c1ccccc1Nc1cc(Nc2cc(OC)nn2C)ncc1C#N` [Example 1.02, 2-[[5-cyano-2-[(5-methoxy-2-methylpyrazol-3-yl)amino]pyridin-4-yl]amino]-N-methylbenzamide] gave an IC50 of 102 nM. To `CON(C)C(=O)c1ccccc1Nc1cc(Nc2cn(C)nc2C)ncc1C#N` [Example 1.03, 2-[[5-Cyano-2-[(1,3-dimethylpyrazol-4-yl)amino]-4-pyridyl]amino]-N-methoxy-N-methyl-benzamide] belongs 554 nM; to `CN1CCc2cccc(Nc3cc(Nc4cnn(C)c4)ncc3C#N)c2C1=O` [Example 1.04, 4-[(2-Methyl-1-oxo-3,4-dihydroisoquinolin-8-yl)amino]-6-[(1-methylpyrazol-4-yl)amino]pyridine-3-carbonitrile], 14 nM. For `Cc1cc(Nc2cc(Nc3cccc4c3C(=O)N(C)CC4)c(C#N)cn2)nn1C` [Example 1.05, 6-[(1,5-dimethylpyrazol-3-yl)amino]-4-[(2-methyl-1-oxo-3,4-dihydroisoquinolin-8-yl)amino]pyridinc-3-carbonitrile] the value was 4 nM; for `COc1cc(Nc2cc(Nc3cccc4c3C(=O)N(C)CC4)c(C#N)cn2)n(C)n1` [Example 1.06, 6-[(5-methoxy-2-methylpyrazol-3-yl)amino]-4-[(2-methyl-1-oxo-3,4-dihydroisoquinolin-8-yl)amino]pyridine-3-carbonitrile], 20 nM; for `CN1CCC(n2cc(Nc3cc(Nc4cccc5c4C(=O)N(C)CC5)c(C#N)cn3)cn2)CC1` [Example 1.07, 4-[(2-methyl-1-oxo-3,4-dihydroisoquinolin-8-yl)amino]-6-[[1-(1-methyl-4-piperidyl)pyrazol-4-yl]amino]pyridine-3-carbonitrile], 128 nM. To `Cc1nn(C)cc1Nc1cc(Nc2cccc3c2C(=O)N(C)CC3)c(C#N)cn1` [Example 1.08, 6-[(1,3-dimethylpyrazol-4-yl)amino]-4-[(2-methyl-1-oxo-3,4-dihydroisoquinolin-8-yl)amino]pyridine-3-carbonitrile] belongs 6 nM; to `Cc1nn(C)cc1Nc1cc(Nc2ccc(N3CCN(C(C)C)CC3)c3c2C(=O)N(C)C3)c(C#N)cn1` [Example 1.09, 6-[(1,3-Dimethylpyrazol-4-yl)amino]-4-[[7-(4-isopropylpiperazin-1-yl)-2-methyl-3-oxo-isoindolin-4-yl]amino]pyridine-3-carbonitrile], 19 nM. Turning to `CNC(=O)c1ccccc1Nc1cc(Nc2cc(C)n(C)n2)ncc1C(F)(F)F` [Example 2.01, 2-[[2-[(1,5-Dimethylpyrazol-3-yl)amino]-5-(trifluoromethyl)-4-pyridyl]amino]-N-methyl-benzamide], half-maximal inhibition (IC50) was put at 19 nM. To `CNC(=O)c1ccccc1Nc1cc(Nc2cn(C)nc2C)ncc1C(F)(F)F` [Example 2.02, 2-[[2-[(1,3-dimethylpyrazol-4-yl)amino]-5-(trifluoromethyl)-4-pyridyl]amino]-N-methyl-benzamide] belongs 8 nM. In turn, `CONC(=O)c1ccccc1Nc1cc(Nc2cn(C)nc2C)ncc1Cl` [Example 3.01, 2-[[5-Chloro-2-[(1,3-dimethylpyrazol-4-yl)amino]-4-pyridyl]amino]-N-methoxy-benzamide] had an IC50 of 44 nM. Compound `CONC(=O)c1ccccc1Nc1cc(Nc2cc(C)n(C)n2)ncc1Cl` [Example 3.02, 2-[[5-chloro-2-[(1,5-dimethylpyrazol-3-yl)amino]-4-pyridyl]amino]-N-methoxy-benzamide] returned an IC50 of 41 nM. For `CNC(=O)c1ccccc1Nc1cc(Nc2cnn(CC(=O)N3CCCC3)c2)ncc1Cl` [Example 3.03, 2-[[5-Chloro-2-[[1-(2-oxo-2-pyrrolidin-1-yl-ethyl)pyrazol-4-yl]amino]-4-pyridyl]amino]-N-methyl-benzamide] the value was 80 nM; for `CNC(=O)c1ccccc1Nc1cc(Nc2cnn(CC(=O)N3CCCN(C)CC3)c2)ncc1Cl` [Example 3.04, 2-[[5-chloro-2-[[1-[2-(4-methyl-1,4-diazepan-1-yl)-2-oxo-ethyl]pyrazol-4-yl]amino]-4-pyridyl]amino]-N-methyl-benzamide], 68 nM; for `CNC(=O)c1ccccc1Nc1cc(Nc2cnn(CC(=O)N3CCOCC3)c2)ncc1Cl` [Example 3.05, 2-[[5-chloro-2-[[1-(2-morpholino-2-oxo-ethyl)prazol-4-yl]amino]-4-pyridyl]amino]-N-methyl-benzamide], 90 nM. To `CNC(=O)c1ccccc1Nc1cc(Nc2cnn(CC(=O)N(C)CCOC)c2)ncc1Cl` [Example 3.06, 2-[[5-chloro-2-[[1-[2-(2-methoxyethyl-methyl-amino)-2-oxo-ethyl]pyrazol-4-yl]amino]-4-pyridyl]amino]-N-methyl-benzamide] belongs 99 nM; to `CNC(=O)c1ccccc1Nc1cc(Nc2cnn(CC(=O)N3CCN(C)CC3)c2)ncc1Cl` [Example 3.07, 2-[[5-chloro-2-[[1-[2-(4-methylpiperazin-1-yl)-2-oxo-ethyl]pyrazol-4-yl]amino]-4-pyridyl]amino]-N-methyl-benzamide], 48 nM. To `CNC(=O)c1ccccc1Nc1cc(Nc2cc(OC)nn2C)ncc1Cl` [Example 3.08, 2-[[5-Chloro-2-[(5-methoxy-2-methylpyrazol-3-yl)amino]pyridin-4-yl]amino]-N-methylbenzamide] belongs 60 nM. Compound `CNC(=O)c1ccccc1Nc1cc(Nc2cc(C)nn2C)ncc1Cl` [Example 3.09, 2-[[5-chloro-2-[(2,5-dimethylpyrazol-3-yl)amino]-4-pyridyl]amino]-N-methyl-benzamide] had an IC50 of 29 nM. For `CNC(=O)c1ccccc1Nc1cc(Nc2cc(C)n(C)n2)ncc1Cl` [Example 3.10, 2-[[5-chloro-2-[(1,5-dimethylpyrazol-3-yl)amino]-4-pyridyl]amino]-N-methyl-benzamide] the value was 45 nM. To `CNC(=O)c1ccccc1Nc1cc(Nc2cnn(C)c2)ncc1Cl` [Example 3.11, 2-[[5-chloro-2-[(1-methylpyrazol-4-yl)amino]-4-pyridyl]amino]-N-methyl-benzamide] belongs 439 nM; to `CNC(=O)c1ccccc1Nc1cc(Nc2cnn(C3CCN(C)CC3)c2)ncc1Cl` [Example 3.12, 2-[[5-chloro-2-[[1-(1-methyl-4-piperidyl)pyrazol-4-yl]amino]-4-pyridyl]amino]-N-methyl-benzamide], 195 nM. `CNC(=O)c1ccccc1Nc1cc(Nc2cnn(C3CCN(C(C)=O)CC3)c2)ncc1Cl` [Example 3.13, 2-[(2-[[1-(1-acetyl-4-piperidyl)pyrazol-4-yl]amino]-5-chloro-4-pyridyl]amino]-N-methyl-benzamide] showed an IC50 of 128 nM. For `CNC(=O)c1ccccc1Nc1cc(Nc2cn(C)nc2C)ncc1Cl` [Example 3.14, 2-[[5-chloro-2-[(1,3-dimethylpyrazol-4-yl)amino]-4-pyridyl]amino]-N-methyl-benzamide] the value was 45 nM.

For the origin of these results see patent US8569298B2, “Pyridine compounds” (Astrazeneca AB, priority 2008, dated 2013).
